Common to all, as to experiment: NCI tumour cell line growth inhibition, 48 h
Assay [1] relates to PC-3 prostate.
Assay [2] concerns HCT-116 colon.
For assay [3], the system named is MOLT-4 leukemia.
Assay [4] deals with HS 578T breast.
Assay [5] has as its system HOP-62 NSCLC.
For assay [6], the system named is SK-MEL-2 melanoma.
Assay [7] concerns DU-145 prostate.
Assay [8] deals with CCRF-CEM leukemia.
For assay [9], the system named is SNB-75 CNS.

“And” between values parts separate entries of the source, which are not always exact repeats. Equal values may be shown once.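 Dose response: 5 concentrations. Exposure: 48 h. Format: 96-well plates. Endpoint: linear interpolation; highest concentration if not reached. TGI: total growth inhibition.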 Numbered stars: 1 amine (or outer) side, 2 acyl side, 3 side chain; on linkers, the order of the positions; unused ones are H or OH. Bridge positions count the residues as written; N and C are the ends. Square brackets hold non-standard residues; d marks the D form. Peptide text beside a SMILES is read from it. I, II: the chains in the order shown. Actinocin(1to9) = Cc1c2oc3c(C)ccc(C(=O)[*:2])c3nc-2c(C(=O)[*:1])c(N)c1=O; NMeV = CN[CH](C(=O)O)C(C)C; Sar = CNCC(=O)O

With `Nc1ccc2c(c1)S(=O)(=O)c1cc(N)ccc1-2`, the TGI in [1], in assay [2], in assay [3], in assay [4], in assay [5] and in assay [6] was more than 100 µM each time. In addition, the TGI in assay [7] was more than 100 µM.
With `COc1ccc(-c2cc(-c3ccccc3)nc(N)n2)c(O)c1`, the TGI in assay [8], in [1], in assay [2], in [3], in assay [4] and in [9] was more than 100 µM in each case. Also, the TGI in assay [5] and in [6] was more than 100 µM in each case.
For `O=C(O)CCCN=C(C(=NCCCC(=O)O)c1ccccc1)c1ccccc1`, the TGI in assay [1], in [2], in assay [3], in assay [4], in assay [9] and in [5] was more than 100 µM throughout. The TGI in assay [6] and in [7] was more than 100 µM each time.
Consider `COC(=O)C(=O)C(C(=O)C(=O)Nc1nc(=S)[nH][nH]1)c1nc2ccc([N+](=O)[O-])cc2[nH]c1=O` (stereo unspecified), for which the TGI in [8], in [1], in [2], in assay [4], in assay [9] and in assay [5] was more than 100 µM in each case. The TGI in [6] was more than 100 µM.
Take `CC(=O)Oc1cc2c(n(C)c1=O)CCC2`: the TGI in assay [8], in assay [1], in assay [2], in assay [3], in assay [9] and in assay [5] was more than 100 µM in each case. Also, the TGI in assay [6] and in assay [7] was more than 100 µM in each case.
Take `Cc1cc2nc3c(C#N)c4c(c(Nc5ccc(Cl)cc5)n3c2cc1C)CCC4`: the TGI in assay [2] was 30.4 µM; in assay [3], more than 100 µM; in assay [9], more than 100 µM; in assay [5], more than 100 µM; in [7] it was 75.1 µM.
Consider `C1COCCOP2(N3CC3)=NP(N3CC3)(=NP(N3CC3)(N3CC3)=N2)OCCOCCO1` (stereo unspecified), for which the TGI in assay [8], in assay [1], in assay [2], in [3], in assay [4] and in assay [9] was more than 100 µM in each case. Also, the TGI in [5] and in assay [7] was more than 100 µM each time.
For the compound `CCC(C)C1NC(=O)C(NC(=O)c2c3nc4c(C(=O)NC5C(=O)NC(C(C)C)C(=O)N6CCCC6C(=O)N(C)CC(=O)N(C)C(C(C)C)C(=O)OC5C)ccc(C)c4oc-3c(C)c(=O)c2N)C(C)OC(=O)C(C(C)C)N(C)C(=O)CN(C)C(=O)C2CCCN2C1=O` (stereo unspecified) (I: TIP[Sar][NMeV] / II: TVP[Sar][NMeV]; ester I:1-I:C, II:1-II:C; linker I:N-II:N via Actinocin(1to9); configuration not given here), the TGI in [1] was 0.0947 µM and 0.0301 µM; in assay [2], 4.8 µM; in assay [3] it was 0.0667 µM and 0.0163 µM; in assay [4] it was 0.363 µM; in [9] it was 0.579 µM; in assay [6] it was 0.111 µM. In assay [7], the TGI was 0.71 µM.
In the case of `OCC(O)C(O)C(C=NNc1ncnc2ccc(Br)cc12)=NNc1ncnc2ccc(Br)cc12` (stereo unspecified), the TGI in assay [1] was 77.4 µM and > 100 µM; in [2] it was more than 100 µM; in [3], 12.1 µM and > 100 µM; in assay [4], more than 100 µM; in assay [9] it was 17.6 µM and > 100 µM; in assay [5], 25 µM and > 100 µM. The TGI is 12.1 µM and > 100 µM in assay [6]; 9.82 µM in assay [7].
With `CC(=O)c1cccc(NC(=O)/C(=N\NC(=S)NN)C2C(=O)Nc3ccccc3S2=O)c1` (stereo unspecified), the TGI in assay [8], in [1], in [2], in assay [3], in assay [4] and in [9] was more than 100 µM each time. In addition, the TGI in assay [5] and in [6] was more than 100 µM each time.
For the compound `O=C(NC(Cc1ccccc1)P(=O)(O)c1ccccc1)OCc1ccccc1` (stereo unspecified), the TGI in [8], in assay [1], in [2], in [3], in assay [4] and in assay [9] was more than 100 µM in each case. Also, the TGI in [5] and in assay [7] was more than 100 µM throughout.
On to `CC1OC(n2cnc3c(N)nc(Cl)nc32)C(C)(O)C1O` (stereo unspecified), for which the TGI in assay [8] is more than 25 µM; in assay [2], more than 25 µM; in assay [3] it was more than 25 µM; in assay [4], more than 25 µM; in assay [9] it was 15.2 µM; in assay [5] it was more than 25 µM. Also, the TGI in assay [6] and in assay [7] was more than 25 µM throughout.
With `Cc1ccc(NCc2nnc3c(-c4ccccc4)nc4ccccc4n23)cc1`, the TGI is more than 100 µM in assay [8]; 52.9 µM in [1]; more than 100 µM in assay [2]; more than 100 µM in [3]; more than 100 µM in [4]; more than 100 µM in assay [5]. Further, the TGI is 65.5 µM in [6] and more than 100 µM in [7].
For `CC(C)(C)c1cc2c(O)c(c1)COCc1cc(C(C)(C)C)cc(c1O)COCc1cc(C(C)(C)C)cc(c1O)COC2`, the TGI in assay [8], in assay [1], in [2], in assay [3], in [9] and in assay [5] was more than 100 µM throughout. Moreover, the TGI in assay [6] and in assay [7] was more than 100 µM in each case.
For `CC1(C)O[C@@H](CP(c2ccc3ccccc3c2)c2ccc3ccccc3c2)[C@H](CP(c2ccc3ccccc3c2)c2ccc3ccccc3c2)O1`, the TGI in assay [8], in assay [1], in assay [2], in assay [3], in assay [9] and in assay [5] was more than 100 µM in each case. For the same compound, the TGI in assay [6] and in [7] was more than 100 µM in each case.
For `CN1C(=O)C(O)C[C@@H]1c1ccc(F)cc1` (stereo partly specified), the TGI in assay [8], in assay [1], in [2], in assay [3], in assay [5] and in [6] was more than 100 µM each time. Also, in [7], the TGI is more than 100 µM.

The values above are taken from PubChem BioAssay (NCI).
